{
  "source": "ChEMBL document CHEMBL1201862",
  "about": "“PubChem BioAssay data set” (2004)",
  "key": {"Melanocortin receptor 4": {"molecular_target": "Melanocortin receptor 4 (Homo sapiens, UniProt P32245)", "sequence (P32245 whole entry)": "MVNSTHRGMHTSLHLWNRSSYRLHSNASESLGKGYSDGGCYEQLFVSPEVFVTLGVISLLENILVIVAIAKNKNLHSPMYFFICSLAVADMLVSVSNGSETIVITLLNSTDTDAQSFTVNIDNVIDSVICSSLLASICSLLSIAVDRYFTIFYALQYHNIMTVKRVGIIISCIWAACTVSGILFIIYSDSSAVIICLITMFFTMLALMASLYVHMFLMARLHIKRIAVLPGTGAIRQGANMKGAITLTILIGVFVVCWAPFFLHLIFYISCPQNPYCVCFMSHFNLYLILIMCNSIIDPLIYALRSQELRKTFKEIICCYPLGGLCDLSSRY", "assay": "inhibitors of MC4R cAMP signaling – cell-based, TR-FRET, biased antagonists, dose response (AID 602298);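 note: antagonist potency against agonist-stimulated cAMP production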", "type": "functional"}, "[1]": {"assay": "cAMP pathway inhibition in counterscreen cell line – TR-FRET cAMP detection, counter-screen for MC4R biased antagonist project, dose response (AID 602305);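 note: U2OS cells stimulated with forskolin near its EC80 as the cAMP inducer; potency is for inhibition of forskolin-stimulated cAMP signaling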", "type": "functional, cell-based"}, "[2]": {"molecular_target": "Vascular endothelial growth factor receptor 2 (Homo sapiens, UniProt P35968)", "type": "functional"}, "Aurora kinase B": {"molecular_target": "Aurora kinase B (Homo sapiens, UniProt Q96GD4)", "sequence (Q96GD4 whole entry)": "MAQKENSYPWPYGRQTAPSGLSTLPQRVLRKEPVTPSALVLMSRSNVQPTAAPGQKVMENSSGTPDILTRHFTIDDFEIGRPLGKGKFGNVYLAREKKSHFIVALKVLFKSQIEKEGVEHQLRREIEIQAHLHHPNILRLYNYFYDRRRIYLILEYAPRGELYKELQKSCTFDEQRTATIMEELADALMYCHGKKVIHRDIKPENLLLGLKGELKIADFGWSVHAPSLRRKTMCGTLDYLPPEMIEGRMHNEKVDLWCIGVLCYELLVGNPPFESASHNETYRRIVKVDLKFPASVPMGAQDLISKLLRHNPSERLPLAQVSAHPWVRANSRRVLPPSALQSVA", "type": "functional"}, "Aurora kinase A": {"molecular_target": "Aurora kinase A (Homo sapiens, UniProt O14965)", "type": "functional"}, "[3]": {"molecular_target": "Serine/threonine-protein kinase TAO1 (Homo sapiens, UniProt Q7L7X3)", "type": "functional"}, "[4]": {"molecular_target": "Dual specificity protein kinase CLK4 (Homo sapiens, UniProt Q9HAZ1)", "sequence (Q9HAZ1 whole entry)": "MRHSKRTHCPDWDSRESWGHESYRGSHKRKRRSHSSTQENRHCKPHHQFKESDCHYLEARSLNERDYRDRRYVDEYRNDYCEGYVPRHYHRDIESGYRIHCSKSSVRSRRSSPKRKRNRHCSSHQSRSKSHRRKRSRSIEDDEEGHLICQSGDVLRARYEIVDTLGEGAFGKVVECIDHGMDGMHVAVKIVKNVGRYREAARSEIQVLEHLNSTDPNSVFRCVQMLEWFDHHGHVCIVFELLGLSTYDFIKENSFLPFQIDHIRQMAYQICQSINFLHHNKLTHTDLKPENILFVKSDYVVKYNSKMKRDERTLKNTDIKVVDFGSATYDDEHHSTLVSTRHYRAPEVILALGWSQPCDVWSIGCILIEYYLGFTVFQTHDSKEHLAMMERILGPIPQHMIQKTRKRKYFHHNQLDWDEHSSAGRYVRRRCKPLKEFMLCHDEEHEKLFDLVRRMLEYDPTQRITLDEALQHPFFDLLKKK", "type": "functional"}, "[5]": {"molecular_target": "Cyclin-dependent kinase 5 (Homo sapiens, UniProt Q00535)", "sequence (Q00535 whole entry)": "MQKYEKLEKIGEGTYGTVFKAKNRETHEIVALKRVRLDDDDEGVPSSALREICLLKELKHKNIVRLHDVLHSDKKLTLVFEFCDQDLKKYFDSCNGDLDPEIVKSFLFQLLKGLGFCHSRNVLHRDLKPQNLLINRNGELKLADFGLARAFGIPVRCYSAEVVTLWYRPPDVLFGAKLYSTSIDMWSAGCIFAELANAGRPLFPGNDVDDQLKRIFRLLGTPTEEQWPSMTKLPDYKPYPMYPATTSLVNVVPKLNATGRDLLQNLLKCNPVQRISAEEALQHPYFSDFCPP", "type": "functional"}, "[6]": {"molecular_target": "High affinity nerve growth factor receptor (Homo sapiens, UniProt P04629)", "type": "functional"}, "[7]": {"molecular_target": "Hepatocyte growth factor receptor (Homo sapiens, UniProt P08581)", "type": "functional"}, "[8]": {"molecular_target": "Glycogen synthase kinase-3 beta (Homo sapiens, UniProt P49841)", "sequence (P49841 whole entry)": "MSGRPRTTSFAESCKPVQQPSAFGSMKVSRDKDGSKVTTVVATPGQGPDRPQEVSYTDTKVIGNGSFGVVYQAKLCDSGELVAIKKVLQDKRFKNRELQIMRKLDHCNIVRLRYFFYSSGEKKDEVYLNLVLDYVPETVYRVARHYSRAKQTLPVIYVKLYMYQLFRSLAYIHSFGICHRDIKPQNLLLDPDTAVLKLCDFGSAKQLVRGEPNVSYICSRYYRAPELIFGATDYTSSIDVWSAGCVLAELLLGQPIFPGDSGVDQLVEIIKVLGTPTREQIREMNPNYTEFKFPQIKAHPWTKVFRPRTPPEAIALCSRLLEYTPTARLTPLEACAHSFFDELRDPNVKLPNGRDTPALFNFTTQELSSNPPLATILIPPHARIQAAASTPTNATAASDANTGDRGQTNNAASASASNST", "type": "functional"}, "[9]": {"molecular_target": "cAMP-dependent protein kinase catalytic subunit alpha (Homo sapiens, UniProt P17612)", "type": "functional"}, "[10]": {"molecular_target": "Fibroblast growth factor receptor 1 (Homo sapiens, UniProt P11362)", "sequence (P11362 whole entry)": "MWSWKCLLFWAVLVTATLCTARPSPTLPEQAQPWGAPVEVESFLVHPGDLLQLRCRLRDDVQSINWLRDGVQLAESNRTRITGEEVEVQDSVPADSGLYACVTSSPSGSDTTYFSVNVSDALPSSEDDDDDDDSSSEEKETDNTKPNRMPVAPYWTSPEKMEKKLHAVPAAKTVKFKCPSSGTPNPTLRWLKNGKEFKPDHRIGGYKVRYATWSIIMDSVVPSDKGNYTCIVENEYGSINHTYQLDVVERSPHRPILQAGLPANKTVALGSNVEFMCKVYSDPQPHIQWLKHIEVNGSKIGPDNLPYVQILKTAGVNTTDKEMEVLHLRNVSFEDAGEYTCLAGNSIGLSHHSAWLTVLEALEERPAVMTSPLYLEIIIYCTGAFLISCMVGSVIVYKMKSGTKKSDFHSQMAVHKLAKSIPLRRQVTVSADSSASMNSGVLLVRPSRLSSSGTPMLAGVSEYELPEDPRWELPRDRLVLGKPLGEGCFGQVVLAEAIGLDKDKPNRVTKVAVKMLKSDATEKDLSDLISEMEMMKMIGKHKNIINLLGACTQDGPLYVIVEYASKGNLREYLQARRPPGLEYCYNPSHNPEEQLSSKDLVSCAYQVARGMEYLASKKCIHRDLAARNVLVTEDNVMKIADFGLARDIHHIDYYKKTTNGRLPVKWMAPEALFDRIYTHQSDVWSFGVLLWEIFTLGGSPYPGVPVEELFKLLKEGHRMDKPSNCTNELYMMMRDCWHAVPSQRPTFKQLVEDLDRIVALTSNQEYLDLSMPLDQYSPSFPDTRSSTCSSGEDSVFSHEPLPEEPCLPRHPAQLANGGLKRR", "type": "functional"}, "[11]": {"molecular_target": "Glycogen synthase kinase-3 alpha (Homo sapiens, UniProt P49840)", "type": "functional"}, "[12]": {"molecular_target": "Casein kinase I isoform alpha (Homo sapiens, UniProt P48729)", "type": "functional"}, "[13]": {"molecular_target": "Macrophage-stimulating protein receptor (Homo sapiens, UniProt Q04912)", "assay": "Navigating the Kinome. Panel member name: MST1R", "type": "functional"}, "[14]": {"molecular_target": "Mitogen-activated protein kinase 14 (Homo sapiens, UniProt Q16539)", "type": "functional"}, "[15]": {"molecular_target": "Dual specificity mitogen-activated protein kinase kinase 2 (Homo sapiens, UniProt P36507)", "assay": "Navigating the Kinome. Panel member name: MAP2K2", "type": "functional"}, "[16]": {"molecular_target": "Mitogen-activated protein kinase 9 (Homo sapiens, UniProt P45984)", "type": "functional"}, "[17]": {"molecular_target": "Serine/threonine-protein kinase PLK1 (Homo sapiens, UniProt P53350)", "type": "functional"}, "[18]": {"molecular_target": "Calcium/calmodulin-dependent protein kinase type II subunit alpha (Homo sapiens, UniProt Q9UQM7)", "sequence (Q9UQM7 whole entry)": "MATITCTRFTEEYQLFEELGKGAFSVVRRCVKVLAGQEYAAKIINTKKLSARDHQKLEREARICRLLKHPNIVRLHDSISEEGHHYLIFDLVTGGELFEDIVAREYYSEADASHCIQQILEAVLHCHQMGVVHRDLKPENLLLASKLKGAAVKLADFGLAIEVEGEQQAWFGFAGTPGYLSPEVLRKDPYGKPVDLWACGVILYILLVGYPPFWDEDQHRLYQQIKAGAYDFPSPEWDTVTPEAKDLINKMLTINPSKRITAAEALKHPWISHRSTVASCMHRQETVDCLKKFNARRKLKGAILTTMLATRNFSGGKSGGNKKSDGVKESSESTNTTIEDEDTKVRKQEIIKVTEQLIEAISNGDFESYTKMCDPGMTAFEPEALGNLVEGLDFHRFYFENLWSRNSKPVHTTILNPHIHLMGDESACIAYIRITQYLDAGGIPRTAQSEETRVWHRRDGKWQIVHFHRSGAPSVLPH", "assay": "Navigating the Kinome. Panel member name: CAMK2A", "type": "functional"}, "[19]": {"molecular_target": "cAMP-dependent protein kinase catalytic subunit PRKX (Homo sapiens, UniProt P51817)", "type": "functional"}, "[20]": {"molecular_target": "Cyclin-dependent kinase 7 (Homo sapiens, UniProt P50613)", "type": "functional"}, "Activated CDC42 kinase 1": {"molecular_target": "Activated CDC42 kinase 1 (Homo sapiens, UniProt Q07912)", "assay": "Navigating the Kinome. Panel member name: ACK1", "type": "functional"}, "[21]": {"molecular_target": "Serine/threonine-protein kinase PLK3 (Homo sapiens, UniProt Q9H4B4)", "type": "functional"}, "[22]": {"molecular_target": "Dual specificity tyrosine-phosphorylation-regulated kinase 1B (Homo sapiens, UniProt Q9Y463)", "assay": "Navigating the Kinome. Panel member name: DYRK1B", "type": "functional"}, "[23]": {"molecular_target": "Dual specificity mitogen-activated protein kinase kinase 1 (Homo sapiens, UniProt Q02750)", "assay": "Navigating the Kinome. Panel member name: MAP2K1", "type": "functional"}, "[24]": {"molecular_target": "Leucine-rich repeat serine/threonine-protein kinase 2 (Homo sapiens, UniProt Q5S007)", "type": "functional"}, "[25]": {"molecular_target": "Rho-associated protein kinase 1 (Homo sapiens, UniProt Q13464)", "type": "functional"}, "[26]": {"molecular_target": "Serine/threonine-protein kinase Chk1 (Homo sapiens, UniProt O14757)", "type": "functional"}, "[27]": {"molecular_target": "Inhibitor of nuclear factor kappa-B kinase subunit epsilon (Homo sapiens, UniProt Q14164)", "assay": "Navigating the Kinome. Panel member name: IKBKE", "type": "functional"}, "[28]": {"molecular_target": "Serine/threonine-protein kinase Nek2 (Homo sapiens, UniProt P51955)", "sequence (P51955 whole entry)": "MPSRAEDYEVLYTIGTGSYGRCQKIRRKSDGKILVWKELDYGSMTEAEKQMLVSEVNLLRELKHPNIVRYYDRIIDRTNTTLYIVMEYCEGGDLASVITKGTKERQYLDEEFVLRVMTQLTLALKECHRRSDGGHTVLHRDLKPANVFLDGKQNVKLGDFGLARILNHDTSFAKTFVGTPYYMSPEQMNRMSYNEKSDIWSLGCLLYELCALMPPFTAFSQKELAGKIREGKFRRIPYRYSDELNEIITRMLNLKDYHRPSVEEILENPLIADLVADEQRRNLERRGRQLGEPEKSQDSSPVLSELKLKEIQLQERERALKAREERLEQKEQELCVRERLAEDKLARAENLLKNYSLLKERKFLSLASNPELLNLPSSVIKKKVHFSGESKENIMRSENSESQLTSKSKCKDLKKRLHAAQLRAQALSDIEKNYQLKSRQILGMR", "type": "functional"}, "[29]": {"molecular_target": "Cyclin-dependent kinase 8 (Homo sapiens, UniProt P49336)", "assay": "Navigating the Kinome. Panel member name: CDK8", "type": "functional"}, "[30]": {"molecular_target": "Serine/threonine-protein kinase TBK1 (Homo sapiens, UniProt Q9UHD2)", "sequence (Q9UHD2 whole entry)": "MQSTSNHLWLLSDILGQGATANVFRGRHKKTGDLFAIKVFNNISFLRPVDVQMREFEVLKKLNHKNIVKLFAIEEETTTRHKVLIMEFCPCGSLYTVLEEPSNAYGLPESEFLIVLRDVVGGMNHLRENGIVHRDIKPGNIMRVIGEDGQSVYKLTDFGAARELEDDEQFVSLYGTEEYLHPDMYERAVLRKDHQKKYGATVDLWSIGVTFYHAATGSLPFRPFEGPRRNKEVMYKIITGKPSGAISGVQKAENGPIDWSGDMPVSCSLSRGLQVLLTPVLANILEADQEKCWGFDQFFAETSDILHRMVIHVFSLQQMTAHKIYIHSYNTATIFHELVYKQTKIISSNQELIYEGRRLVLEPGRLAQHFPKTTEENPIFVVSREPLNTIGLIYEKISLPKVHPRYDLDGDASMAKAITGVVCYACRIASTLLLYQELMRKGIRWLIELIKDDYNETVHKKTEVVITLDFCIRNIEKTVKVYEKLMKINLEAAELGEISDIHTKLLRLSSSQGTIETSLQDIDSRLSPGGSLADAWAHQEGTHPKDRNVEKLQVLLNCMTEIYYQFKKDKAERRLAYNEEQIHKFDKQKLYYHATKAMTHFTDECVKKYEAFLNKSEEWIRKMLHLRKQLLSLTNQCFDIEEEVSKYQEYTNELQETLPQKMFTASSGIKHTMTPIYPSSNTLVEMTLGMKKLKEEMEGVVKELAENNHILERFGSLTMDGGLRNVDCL", "assay": "Navigating the Kinome. Panel member name: TBK1", "type": "functional"}, "[31]": {"molecular_target": "RAC-alpha serine/threonine-protein kinase (Homo sapiens, UniProt P31749)", "type": "functional"}, "LIM domain kinase 1": {"molecular_target": "LIM domain kinase 1 (Homo sapiens, UniProt P53667)", "assay": "Navigating the Kinome. Panel member name: LIMK1", "type": "functional"}, "[32]": {"molecular_target": "5'-AMP-activated protein kinase catalytic subunit alpha-1 (Homo sapiens, UniProt Q13131)", "type": "functional"}, "[33]": {"molecular_target": "Serine/threonine-protein kinase pim-3 (Homo sapiens, UniProt Q86V86)", "type": "functional"}, "[34]": {"molecular_target": "Dual specificity protein kinase CLK2 (Homo sapiens, UniProt P49760)", "type": "functional"}, "[35]": {"molecular_target": "RAC-gamma serine/threonine-protein kinase (Homo sapiens, UniProt Q9Y243)", "type": "functional"}, "[36]": {"molecular_target": "Serine/threonine-protein kinase pim-1 (Homo sapiens, UniProt P11309)", "type": "functional"}, "[37]": {"molecular_target": "Ribosomal protein S6 kinase alpha-3 (Homo sapiens, UniProt P51812)", "type": "functional"}, "[38]": {"molecular_target": "Serine/threonine-protein kinase D3 (Homo sapiens, UniProt O94806)", "type": "functional"}, "[39]": {"molecular_target": "Serine/threonine-protein kinase PAK 4 (Homo sapiens, UniProt O96013)", "type": "functional"}, "[40]": {"molecular_target": "G protein-coupled receptor kinase 5 (Homo sapiens, UniProt P34947)", "sequence (P34947 whole entry)": "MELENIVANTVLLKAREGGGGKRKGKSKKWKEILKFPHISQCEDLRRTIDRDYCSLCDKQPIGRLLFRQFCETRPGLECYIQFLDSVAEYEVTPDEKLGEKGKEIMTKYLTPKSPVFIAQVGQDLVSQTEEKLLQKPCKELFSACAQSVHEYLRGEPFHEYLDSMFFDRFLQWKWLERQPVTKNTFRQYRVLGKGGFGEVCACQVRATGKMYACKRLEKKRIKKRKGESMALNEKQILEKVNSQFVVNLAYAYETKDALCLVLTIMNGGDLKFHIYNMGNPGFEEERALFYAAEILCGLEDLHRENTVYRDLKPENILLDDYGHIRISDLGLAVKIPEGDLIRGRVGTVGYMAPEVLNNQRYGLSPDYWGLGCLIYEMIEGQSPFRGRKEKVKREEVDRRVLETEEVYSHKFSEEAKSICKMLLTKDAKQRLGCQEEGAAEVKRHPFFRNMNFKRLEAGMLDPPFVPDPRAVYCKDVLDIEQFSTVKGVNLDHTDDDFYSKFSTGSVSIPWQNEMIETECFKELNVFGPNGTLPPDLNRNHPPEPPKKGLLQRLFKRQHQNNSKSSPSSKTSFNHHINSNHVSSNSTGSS", "assay": "Navigating the Kinome. Panel member name: GPRK5", "type": "functional"}, "[41]": {"molecular_target": "Dual specificity tyrosine-phosphorylation-regulated kinase 1A (Homo sapiens, UniProt Q13627)", "type": "functional"}, "[42]": {"molecular_target": "BDNF/NT-3 growth factors receptor (Homo sapiens, UniProt Q16620)", "type": "functional"}, "[43]": {"molecular_target": "Multidrug resistance protein CDR2 (Candida albicans (strain SC5314 / ATCC MYA-2876) (Yeast), UniProt P78595)", "assay": "inhibition of Nile Red efflux via Candida CDR2 – S. cerevisiae AD1-8u, singleplex, Cherry Pick1 hits, dose response (AID 588604)", "type": "functional"}},
  "note": "The source made the active and inactive calls.",
  "data": [
    {"smiles": "O=C(CNC(=O)C(c1ccccc1)c1ccccc1)OCc1ccccc1", "values": [
      {"measurement": "IC50", "setting": "Melanocortin receptor 4", "result": "> 64.6 µM (inactive)"},
      {"measurement": "IC50", "setting": "[1]", "result": "> 64.6 µM (inactive)"}
    ]},
    {"smiles": "Nc1nc(SCC(=O)Nc2ncccn2)nc2nc[nH]c12", "values": [
      {"measurement": "Ki", "setting": "[2]", "result": "3.98 µM (active)"},
      {"measurement": "Ki", "setting": "Aurora kinase B", "result": "0.0794 µM (active)"},
      {"measurement": "Ki", "setting": "Aurora kinase A", "result": "> 2 µM (inactive)"}
    ]},
    {"smiles": "Nc1cc(Nc2ccc(O)c(CNC(=O)C(F)(F)F)c2)ncn1", "values": [
      {"measurement": "Ki", "setting": "[3]", "result": "1.58 µM (active)"},
      {"measurement": "Ki", "setting": "[4]", "result": "1.26 µM (active)"},
      {"measurement": "Ki", "setting": "[5]", "result": "0.794 µM (active)"}
    ]},
    {"smiles": "O=C1NCc2ccc(-c3ccc(Cl)cc3)cc21", "values": [
      {"measurement": "Ki", "setting": "[6]", "result": "63.1 µM (active)"},
      {"measurement": "Ki", "setting": "[7]", "result": "63.1 µM (active)"},
      {"measurement": "Ki", "setting": "[8]", "result": "63.1 µM (active)"},
      {"measurement": "Ki", "setting": "[9]", "result": "50.1 µM (active)"},
      {"measurement": "Ki", "setting": "[10]", "result": "63.1 µM (active)"}
    ]},
    {"smiles": "O=C1NCc2c(Br)cccc21", "values": [
      {"measurement": "Ki", "setting": "[11]", "result": "> 79.4 µM (inactive)"},
      {"measurement": "Ki", "setting": "[12]", "result": "63.1 µM (active)"},
      {"measurement": "Ki", "setting": "[13]", "result": "> 79.4 µM (inactive)"},
      {"measurement": "Ki", "setting": "[14]", "result": "> 79.4 µM (inactive)"},
      {"measurement": "Ki", "setting": "[15]", "result": "> 79.4 µM (inactive)"},
      {"measurement": "Ki", "setting": "[16]", "result": "> 79.4 µM (inactive)"},
      {"measurement": "Ki", "setting": "[17]", "result": "> 79.4 µM (inactive)"},
      {"measurement": "Ki", "setting": "[4]", "result": "6.31 µM (active)"},
      {"measurement": "Ki", "setting": "[18]", "result": "> 79.4 µM (inactive)"},
      {"measurement": "Ki", "setting": "[19]", "result": "> 63.1 µM (inactive)"},
      {"measurement": "Ki", "setting": "[20]", "result": "> 79.4 µM (inactive)"},
      {"measurement": "Ki", "setting": "Activated CDC42 kinase 1", "result": "> 79.4 µM (inactive)"},
      {"measurement": "Ki", "setting": "[21]", "result": "> 79.4 µM (inactive)"},
      {"measurement": "Ki", "setting": "[22]", "result": "31.6 µM (active)"},
      {"measurement": "Ki", "setting": "[23]", "result": "> 63.1 µM (inactive)"},
      {"measurement": "Ki", "setting": "[5]", "result": "63.1 µM (active)"},
      {"measurement": "Ki", "setting": "[24]", "result": "31.6 µM (active)"},
      {"measurement": "Ki", "setting": "[8]", "result": "> 79.4 µM (inactive)"},
      {"measurement": "Ki", "setting": "[25]", "result": "20 µM (active)"},
      {"measurement": "Ki", "setting": "[26]", "result": "> 79.4 µM (inactive)"},
      {"measurement": "Ki", "setting": "[27]", "result": "> 63.1 µM (inactive)"},
      {"measurement": "Ki", "setting": "[28]", "result": "> 63.1 µM (inactive)"},
      {"measurement": "Ki", "setting": "[29]", "result": "> 79.4 µM (inactive)"},
      {"measurement": "Ki", "setting": "[30]", "result": "> 63.1 µM (inactive)"},
      {"measurement": "Ki", "setting": "[10]", "result": "> 63.1 µM (inactive)"},
      {"measurement": "Ki", "setting": "[31]", "result": "> 79.4 µM (inactive)"},
      {"measurement": "Ki", "setting": "LIM domain kinase 1", "result": "> 63.1 µM (inactive)"},
      {"measurement": "Ki", "setting": "Aurora kinase B", "result": "> 79.4 µM (inactive)"},
      {"measurement": "Ki", "setting": "[32]", "result": "> 63.1 µM (inactive)"},
      {"measurement": "Ki", "setting": "[33]", "result": "> 79.4 µM (inactive)"},
      {"measurement": "Ki", "setting": "[34]", "result": "> 79.4 µM (inactive)"},
      {"measurement": "Ki", "setting": "[35]", "result": "> 100 µM (inactive)"},
      {"measurement": "Ki", "setting": "[36]", "result": "50.1 µM (active)"},
      {"measurement": "Ki", "setting": "[37]", "result": "> 79.4 µM (inactive)"},
      {"measurement": "Ki", "setting": "[38]", "result": "> 79.4 µM (inactive)"},
      {"measurement": "Ki", "setting": "[39]", "result": "> 100 µM (inactive)"},
      {"measurement": "Ki", "setting": "[40]", "result": "> 79.4 µM (inactive)"},
      {"measurement": "Ki", "setting": "[41]", "result": "20 µM (active)"},
      {"measurement": "Ki", "setting": "[42]", "result": "> 79.4 µM (inactive)"}
    ]},
    {"smiles": "O=C(N=C(NC(=O)c1ccccc1)Nc1nc2ccccc2o1)c1ccccc1", "values": [
      {"measurement": "EC50", "setting": "[43]", "result": "1.53 µM (active)"}
    ]}
  ]
}
